Consider 14 molecules from patent US5616684A, “Cyclic peptides and use thereof” (priority 1991, dated 1997).

The conditions of this series: amide bond.

Read-outs that look alike come from different tables or passages of the source.

Molecule `CC(C)C[C@@H]1NC(=O)[C@@H](CC(C)C)NC(=O)[C@@H](CCC(=O)O)NC(=O)[C@H](C)NC(=O)[C@@H](CC(=O)O)NC(=O)[C@@H](Cc2c[nH]c3ccccc23)NC1=O` [cyclo[-D-Asp-Ala-D-Glu-D-Leu-Leu-D-Trp-]] yielded a ring closure, yield of all isomers (from CC(C)C[C@H](NC(=O)[C@@H](CC(C)C)NC(=O)[C@@H](CCC(=O)OCc1ccccc1)NC(=O)[C@H](C)NC(=O)[C@@H](CC(=O)OCc1ccccc1)NC(=O)[C@@H](Cc1c[nH]c2ccccc12)NC(=O)OC(C)(C)C)C(=O)O, HONB/DCC (active ester), TEA, DMF, 4.97 mM, 16.0 h, 4 steps) of 10.8%.
The molecule `CC(C)C[C@@H]1NC(=O)[C@@H](CC(C)C)NC(=O)[C@H](CC(=O)O)NC(=O)[C@H](CCCNC(=O)CCc2ccccc2)NC(=O)[C@@H](CC(=O)O)NC(=O)[C@@H](Cc2c[nH]c3ccccc23)NC1=O` [cyclo[-D-Asp-Orn(COCH2 CH2 Ph)-Asp-D-Leu-Leu-D-Trp-]] returned a ring closure, yield of all isomers (from CC(C)C[C@H](NC(=O)[C@@H](CC(C)C)NC(=O)[C@H](CC(=O)OCc1ccccc1)NC(=O)[C@H](CCCNC(=O)CCc1ccccc1)NC(=O)OC(C)(C)C)C(=O)N[C@H](Cc1c[nH]c2ccccc12)C(=O)N[C@H](CC(=O)OCc1ccccc1)C(=O)O, HONB/DCC (active ester), TEA, DMF, 5.05 mM, 16.0 h, 4 steps) of 40.9%.
Consider `CC(C)C[C@@H]1NC(=O)[C@@H](CC(C)C)NC(=O)[C@H](CC(=O)OCc2ccccc2)NC(=O)[C@@H]2C[C@@H](OCc3ccccc3)CN2C(=O)[C@@H](CC(=O)OCc2ccccc2)NC(=O)[C@@H](Cc2c[nH]c3ccccc23)NC1=O` [cyclo[-D-Asp(OBzl)-Hyp(Bzl)-Asp(OBzl)-D-Leu-Leu-D-Trp-]], for which the ring closure, yield of all isomers (from CC(C)C[C@H](NC(=O)[C@@H](CC(C)C)NC(=O)[C@H](CC(=O)OCc1ccccc1)NC(=O)[C@@H]1C[C@@H](OCc2ccccc2)CN1C(=O)[C@@H](CC(=O)OCc1ccccc1)NC(=O)[C@@H](Cc1c[nH]c2ccccc12)NC(=O)OC(C)(C)C)C(=O)O, HONB/DCC (active ester), then TEA, DMF, 9.5 mM, 16.0 h, 3 steps) turned out to be 82.6%.
In turn, `CC(C)C[C@@H]1NC(=O)[C@@H](CC(C)C)NC(=O)[C@H](C)NC(=O)[C@H](CCC(=O)O)NC(=O)[C@@H](CC(=O)O)NC(=O)[C@@H](Cc2c[nH]c3ccccc23)NC1=O` [cyclo[-D-Asp-Glu-Ala-D-Leu-Leu-D-Trp-]] had a ring closure, yield of all isomers (from CC(C)C[C@H](NC(=O)[C@@H](CC(C)C)NC(=O)[C@H](C)NC(=O)[C@H](CCC(=O)OCc1ccccc1)NC(=O)[C@@H](CC(=O)OCc1ccccc1)NC(=O)[C@@H](Cc1c[nH]c2ccccc12)NC(=O)OC(C)(C)C)C(=O)O, HONB/DCC (active ester), TEA, DMF, 4.97 mM, 16.0 h, 4 steps) of 20.6%.
For the molecule `CC(C)C[C@@H]1NC(=O)[C@@H](CC(C)C)NC(=O)[C@H](CC(=O)O)NC(=O)[C@H](Cc2c[nH]c3ccccc23)NC(=O)[C@@H](CC(=O)O)NC(=O)[C@@H](Cc2c[nH]c3ccccc23)NC1=O` [cyclo[-D-Asp-Trp-Asp-D-Leu-Leu-D-Trp-]], the ring closure, yield of all isomers (from CC(C)C[C@H](NC(=O)[C@@H](CC(C)C)NC(=O)[C@H](CC(=O)OCc1ccccc1)NC(=O)[C@H](Cc1c[nH]c2ccccc12)NC(=O)[C@@H](CC(=O)OCc1ccccc1)NC(=O)[C@@H](Cc1c[nH]c2ccccc12)NC(=O)OC(C)(C)C)C(=O)O, HONB/DCC (ONB active ester), TEA, DMF, 4.97 mM, 16.0 h, 4 steps) stood at 52.9%.
Consider `CC(C)C[C@@H]1NC(=O)[C@@H](CC(C)C)NC(=O)[C@H](CC(=O)O)NC(=O)[C@H](CC(=O)NCc2ccccc2)NC(=O)[C@@H](CC(=O)O)NC(=O)[C@@H](Cc2c[nH]c3ccccc23)NC1=O` [cyclo[-D-Asp-Asn(CH2 Ph)-Asp-D-Leu-Leu-D-Trp-]], for which, where the note is “from CC(C)C[C@H](NC(=O)[C@@H](CC(C)C)NC(=O)[C@H](CC(=O)OCc1ccccc1)NC(=O)[C@H](CC(=O)NCc1ccccc1)NC(=O)[C@@H](CC(=O)OCc1ccccc1)NC(=O)[C@@H](Cc1c[nH]c2ccccc12)NC(=O)OC(C)(C)C)C(=O)O, HONB/DCC (ONB active ester), TEA, DMF, 3.46 mM, 16.0 h, 4 steps”, the ring closure, yield of all isomers was determined as 23.8%.
For the molecule `CC(C)C[C@@H]1NC(=O)[C@@H](CC(C)C)NC(=O)[C@H](C)NC(=O)CNC(=O)[C@@H](CC(=O)O)NC(=O)[C@@H](Cc2c[nH]c3ccccc23)NC1=O` [cyclo[-D-Asp-Gly-Ala-D-Leu-Leu-D-Trp-]], the ring closure, yield of all isomers (from CC(C)C[C@H](NC(=O)[C@@H](CC(C)C)NC(=O)[C@H](C)NC(=O)CNC(=O)[C@@H](CC(=O)OCc1ccccc1)NC(=O)[C@@H](Cc1c[nH]c2ccccc12)NC(=O)OC(C)(C)C)C(=O)O, HONB/DCC (active ester), TEA, DMF, 5.9 mM, 16.0 h, 4 steps) turned out to be 19.2%.
`CC(C)C[C@@H]1NC(=O)[C@@H](CC(C)C)NC(=O)[C@H](CC(=O)O)NC(=O)[C@@H]2CCCN2C(=O)[C@@H](CC(=O)O)NC(=O)[C@@H](Cc2c[nH]c3ccccc23)NC1=O` [cyclo[-D-Asp-Pro-Asp-D-Leu-Leu-D-Trp-]] came in with a ring closure, yield of all isomers (from CC(C)C[C@H](NC(=O)[C@@H](CC(C)C)NC(=O)[C@H](CC(=O)OCc1ccccc1)NC(=O)[C@@H]1CCCN1C(=O)[C@@H](CC(=O)OCc1ccccc1)NC(=O)[C@@H](Cc1c[nH]c2ccccc12)NC(=O)OC(C)(C)C)C(=O)O, HONB/DCC (ONB active ester), TEA, DMF, 5.1 mM, 16.0 h, 4 steps) of 47.4%.
`CC(C)C[C@@H]1NC(=O)[C@@H](c2cccs2)NC(=O)[C@H](CC(=O)O)NC(=O)[C@H](CC(=O)NCCc2c[nH]c3ccccc23)NC(=O)[C@@H](CC(=O)O)NC(=O)[C@@H](Cc2c[nH]c3ccccc23)NC1=O` [cyclo[-D-Asp-Asn(CH2 CH2 -Ind)-Asp-D-Thg(2)-Leu-D-Trp-]] showed a ring closure, yield of all isomers (from CC(C)C[C@H](NC(=O)[C@H](NC(=O)OC(C)(C)C)c1cccs1)C(=O)N[C@H](Cc1c[nH]c2ccccc12)C(=O)N[C@H](CC(=O)OCc1ccccc1)C(=O)N[C@@H](CC(=O)NCCc1c[nH]c2ccccc12)C(=O)N[C@@H](CC(=O)OCc1ccccc1)C(=O)O, 4 steps) of 9.5%.
Consider `CC(C)C[C@@H]1NC(=O)[C@@H](CC(C)C)NC(=O)[C@H](CC(=O)O)NC(=O)[C@H](C)NC(=O)[C@@H](CC(=O)O)NC(=O)[C@@H](Cc2c[nH]c3ccccc23)NC1=O` [cyclo[-D-Asp-Ala-Asp-D-Leu-Leu-D-Trp-]], for which the ring closure, yield of all isomers (from CC(C)C[C@H](NC(=O)[C@@H](CC(C)C)NC(=O)[C@H](CC(=O)OCc1ccccc1)NC(=O)[C@H](C)NC(=O)[C@@H](CC(=O)OCc1ccccc1)NC(=O)[C@@H](Cc1c[nH]c2ccccc12)NC(=O)OC(C)(C)C)C(=O)O, HONB/DCC (active ester), TEA, DMF, 5.0 mM, 4 steps) was found to be 18.2%.
Consider `CC(C)C[C@@H]1NC(=O)[C@@H](c2cccs2)NC(=O)[C@H](CC(=O)O)NC(=O)[C@H](Cc2c[nH]c3ccccc23)NC(=O)[C@@H](CC(=O)O)NC(=O)[C@@H](Cc2c[nH]c3ccccc23)NC1=O` [cyclo[-D-Asp-Trp-Asp-D-Thg(2)-Leu-D-Trp-]], for which the ring closure, yield of all isomers (from CC(C)C[C@H](NC(=O)[C@H](NC(=O)OC(C)(C)C)c1cccs1)C(=O)N[C@H](Cc1c[nH]c2ccccc12)C(=O)N[C@H](CC(=O)OCc1ccccc1)C(=O)N[C@@H](Cc1c[nH]c2ccccc12)C(=O)N[C@@H](CC(=O)OCc1ccccc1)C(=O)O, HONB/DCC (active ester), TEA, DMF, 5.06 mM, 4 steps) stood at 4.6%.
As for `CC(C)C[C@@H]1NC(=O)[C@@H](c2cccs2)NC(=O)[C@H](CC(=O)OCc2ccccc2)NC(=O)[C@H](CC(=O)NCCc2c[nH]c3ccccc23)NC(=O)[C@@H](CC(=O)OCc2ccccc2)NC(=O)[C@@H](Cc2c[nH]c3ccccc23)NC1=O`, the ring closure, yield of all isomers (from CC(C)C[C@H](NC(=O)[C@H](NC(=O)[C@H](CC(=O)OCc1ccccc1)NC(=O)[C@H](CC(=O)NCCc1c[nH]c2ccccc12)NC(=O)[C@@H](CC(=O)OCc1ccccc1)NC(=O)[C@@H](Cc1c[nH]c2ccccc12)NC(=O)OC(C)(C)C)c1cccs1)C(=O)O, HONB/DCC (active ester), then diisopropylethylamine, DMF, 4.75 mM, 3 steps) amounted to 90.4%.
In the case of `CC(C)C[C@@H]1NC(=O)[C@@H](CC(C)C)NC(=O)[C@H](CC(=O)O)NC(=O)[C@H](CCCNC(=O)Cc2ccccc2)NC(=O)[C@@H](CC(=O)O)NC(=O)[C@@H](Cc2c[nH]c3ccccc23)NC1=O` [cyclo[-D-Asp-Orn(COCH2 Ph)-Asp-D-Leu-Leu-D-Trp-]], where the note is “from CC(C)C[C@H](NC(=O)[C@@H](CC(C)C)NC(=O)[C@H](CC(=O)OCc1ccccc1)NC(=O)[C@H](CCCNC(=O)Cc1ccccc1)NC(=O)OC(C)(C)C)C(=O)N[C@H](Cc1c[nH]c2ccccc12)C(=O)N[C@H](CC(=O)OCc1ccccc1)C(=O)O, HONB/DCC (active ester), TEA, DMF, 4.66 mM, 4 steps”, the ring closure, yield of all isomers is 2.9%.
In turn, `CC(C)C[C@@H]1NC(=O)[C@@H](CC(C)C)NC(=O)[C@H](C)NC(=O)[C@H](CC(=O)O)NC(=O)[C@@H](CC(=O)O)NC(=O)[C@@H](Cc2c[nH]c3ccccc23)NC1=O` [cyclo[-D-Asp-Asp-Ala-D-Leu-Leu-D-Trp-]] displayed a ring closure, yield of all isomers (from CC(C)C[C@H](NC(=O)[C@@H](CC(C)C)NC(=O)[C@H](C)NC(=O)[C@H](CC(=O)OCc1ccccc1)NC(=O)[C@@H](CC(=O)OCc1ccccc1)NC(=O)[C@@H](Cc1c[nH]c2ccccc12)NC(=O)OC(C)(C)C)C(=O)O, HONB/DCC (active ester), TEA, DMF, 5.04 mM, 16.0 h, 4 steps) of 17.8%.
